Data on 4 compounds can be found in PMC7921093, “Human METTL7B is an alkyl thiol methyltransferase that metabolizes hydrogen sulfide and captopril” (Scientific Reports, 2021).

Holding throughout (format): biochemical
In assay [1] the target is T1, METTL7B (methyltransferase-like protein 7B) (Homo sapiens, UniProt Q6UX53).
T1 construct: gene TMT1B; His-GST-METTL7B, N-terminal His-GST tag with (AP)5 linker
T1 sequence (Q6UX53 1-244): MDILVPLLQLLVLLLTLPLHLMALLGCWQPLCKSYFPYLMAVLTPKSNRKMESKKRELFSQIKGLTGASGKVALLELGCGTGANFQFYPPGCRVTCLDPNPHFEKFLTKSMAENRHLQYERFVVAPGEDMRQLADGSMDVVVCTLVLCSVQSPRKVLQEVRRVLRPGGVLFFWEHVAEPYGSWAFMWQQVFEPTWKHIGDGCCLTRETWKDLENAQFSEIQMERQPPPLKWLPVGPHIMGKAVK
Briefly: MTaseGlo substrate screen (AdoHcy formation) with purified enzyme. The source says: MTaseGlo substrate screen (AdoHcy formation) with purified enzyme on METTL7B (methyltransferase-like protein 7B) | D-Penicillamine|++

The target of assay [2] is T1, METTL7B (methyltransferase-like protein 7B). Briefly: Michaelis-Menten kinetics of S-methyl captopril formation, LC-MS/MS.
Assay [3] has the same target. Briefly: S-methyl captopril formation by purified enzyme, LC-MS/MS; D98A inactive.
For assay [4] the target is unchanged. Briefly: methylsulfide formation, LC-MS/MS after monobromobimane derivatization, saturable kinetics.

In the case of `CC(C)(S)[C@@H](N)C(=O)O` [D-penicillamine], in assay [1], the “MTaseGlo substrate screen (AdoHcy formation) with purified enzyme” value is “D-Penicillamine|++”.
In the case of `C[S+](CC[C@H](N)C(=O)[O-])C[C@H]1O[C@@H](n2cnc3c(N)ncnc32)[C@H](O)[C@@H]1O` (stereo partly drawn) [S-adenosyl-L-methionine], the “Michaelis-Menten kinetics of S-methyl captopril formation, LC-MS/MS” value in assay [2] is “the AdoMet activity curve was saturable and exhibited classic Michaelis–Menten kinetics”.
`C[C@H](CS)C(=O)N1CCC[C@H]1C(=O)O` [captopril]: the “S-methyl captopril formation by purified enzyme, LC-MS/MS; D98A inactive” value in assay [3] is recorded as “concentration-dependent formation of S-methyl captopril was observed upon incubation with purified wild-type His-GST-METTL7B”.
For `S` [hydrogen sulfide], in assay [4], the “methylsulfide formation, LC-MS/MS after monobromobimane derivatization, saturabl” value was “Peak area ratio (PAR) versus concentration curve for hydrogen sulfide methylation as measured by formation of methylsulfide”.
